This is an account of results in US11324748B2, “Vasodilators for treatment of heart failure” (NORTHEAST OHIO MEDICAL UNIVERSITY, priority 2017, dated 2022).

Experiment [1] concerns heart failure induced by TAC (transaortic constriction). The note with it: TAC mice, treatment started at week 5; FIG. 7.
For experiment [2], the system named is myocardial blood flow in the failing heart. The experiment is described as follows: Myocardial blood flow by myocardial contrast echocardiography during norepinephrine cardiac stress test in HF mice. The note with it: FIG. 2 right. The format is in vivo.
Procedure: After the control measurements to establish baseline % EF, mice underwent surgery to constrict the aortic artery. This procedure, termed transaortic constriction (TAC), causes the heart to pump against a high blood pressure, which causes it to fail. […] At the end of the 13th week, mice were either treated with chromonar (as continuous infusion) or a vehicle (that the chromonar was dissolved in).
Myocardial contrast echocardiography (MCE) was used to measure myocardial blood flow in both groups of mice. […] Mice were determined to be in HF when EF<40%). After the development of failure, myocardial blood flow was measured during a cardiac stress test produced by infusion of norepinephrine to increase myocardial metabolic demands. A plot of cardiac work vs MBF was made for the sham mice and for those in HF. To estimate metabolic demands, the index wall stress rate product (WSRP) was developed.
Experiment [3] has as its system heart failure (HF) induced by transaortic constriction (TAC). The experiment is described as follows: Transaortic constriction (TAC) heart failure in mice, echocardiography; chromonar or vehicle from end of week 13. The format is in vivo.
Source text: Ejection fraction is the percentage of blood in the left ventricular chamber that the heart ejects per beat. Under normal conditions, the heart will eject 60-70% of left ventricular volume with each contraction, but the failing heart ejects considerably less. After the control measurements to establish baseline % EF, mice underwent surgery to constrict the aortic artery. This procedure, termed transaortic constriction (TAC), causes the heart to pump against a high blood pressure, which causes it to fail. […] At the end of the 13th week, mice were either treated with chromonar (as continuous infusion) or a vehicle (that the chromonar was dissolved in).
Another way of assessing the effectiveness of a therapy in heart failure is to determine how much volume is in the left ventricle before it begins to contract (termed diastolic volume). When contractile function of the heart declines, this volume progressively increases. This volume is important for a number of reasons. First, it is directly related to energy consumption of the heart (as the volume increases energy consumption is increased). Second, if this volume becomes too large, the heart muscle can be overstretched and will contract even more poorly—this is referred to as decompensated heart failure. Third, as the diastolic volume increases pressures and volumes “upstream” in the atrium and pulmonary vessels will also increase. […]
The subject of the next experiment is Takotsubo Syndrome. The experiment is described as follows: Takotsubo Syndrome produced by TAC, ventricular function, FIG. 11. The note with it: 4 weeks, 2 weeks of treatment. Type of experiment: in vivo, mice.
Experiment [4] has as its system mice with heart failure (HFrEF). The experiment is described as follows: Treadmill exercise time and whole body oxygen consumption in mice with heart failure, FIG. 9.

Each structure is given as a SMILES string. Structures can show the parent of a compound that is named as a salt.

Turning to `CCOC(=O)COc1ccc2c(C)c(CCN(CC)CC)c(=O)oc2c1` [chromonar, 14.3-(beta-Diethylaminoethyl)-4-methyl-7-(carbethoxymethoxy)-coumarin hydrochloride], the “cardiac function (EF %)” value in experiment [1] is reported as “improved dramatically”. The “relationship between MBF and cardiac work (WSRP)” value in experiment [2] (failing heart after chromonar) is “reconnects the relationship between work and flow in the heart”. Further, the “myocardial blood flow (MBF)” value in experiment [2] (failing heart, during changes in cardiac work (WSRP)) is “flow is higher”. For the same compound, the “cardiac function (ejection fraction, % EF)” value in experiment [3] (treated at end of 13th week, continuous infusion, FIG. 2 left) is given as “restored cardiac function—nearly back to the control levels”. Besides, in experiment [3] (treatment at end of week 13, FIG. 3), the “Left Ventricular Diastolic Volume” value was “diastolic volumes decreased”. The “ventricular function (EF %)” value with Takotsubo Syndrome was “improved ventricular function greatly”. In addition, the “total exercise time on a treadmill” value in experiment [4] is about 70 min.

As for `CC(C)NCC(O)COc1cccc2ccccc12` (stereo not shown) [propranolol], in experiment [1], the “cardiac function (EF %)” value was “continued to decrease”. For the same compound, in experiment [4], the “total exercise time on a treadmill” value is on record as “about 45 minutes”. Besides, the “whole body oxygen consumption” value in experiment [4] (within 5 minutes of exercise) is reported as “lower oxygen consumption than the chromonar treated group”.
